Values after ≈ are worked out from the molar mass of the structure shown. Active and inactive are the calls of the source. No cut-off for these calls is given here.
Assays:
[1] = target: T1, Gonadotropin-releasing hormone receptor (Rattus norvegicus, UniProt P30969); assay: Displacement of [D-Trp6]-GnRH from rat recombinant GnRH receptor
T1 sequence (P30969 whole entry): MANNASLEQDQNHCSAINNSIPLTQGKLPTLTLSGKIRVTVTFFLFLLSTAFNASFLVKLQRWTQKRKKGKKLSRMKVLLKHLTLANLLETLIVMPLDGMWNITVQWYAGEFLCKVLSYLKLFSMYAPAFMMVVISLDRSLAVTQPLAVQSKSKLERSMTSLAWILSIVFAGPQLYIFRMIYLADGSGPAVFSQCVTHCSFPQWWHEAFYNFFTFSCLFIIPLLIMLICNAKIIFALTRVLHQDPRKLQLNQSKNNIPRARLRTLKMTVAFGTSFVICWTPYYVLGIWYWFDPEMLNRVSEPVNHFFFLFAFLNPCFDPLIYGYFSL

[2] = target: T2, Gonadotropin-releasing hormone receptor (Homo sapiens, UniProt P30968); assay: Antagonist activity at human GnRH receptor assessed as inhibition of [D-Trp6]-GnRH-stimulated [3H]IP […]; format: functional
T2 sequence (P30968 whole entry): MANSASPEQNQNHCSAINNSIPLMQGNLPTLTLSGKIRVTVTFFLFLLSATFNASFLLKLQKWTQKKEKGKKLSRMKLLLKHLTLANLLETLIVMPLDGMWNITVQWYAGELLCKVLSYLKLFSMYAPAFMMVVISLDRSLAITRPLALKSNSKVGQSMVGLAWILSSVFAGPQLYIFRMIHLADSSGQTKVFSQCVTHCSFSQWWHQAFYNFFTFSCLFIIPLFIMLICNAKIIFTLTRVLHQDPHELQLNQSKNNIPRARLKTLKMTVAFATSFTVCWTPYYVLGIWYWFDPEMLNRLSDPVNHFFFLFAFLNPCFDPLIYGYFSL

[3] = target: T2, Gonadotropin-releasing hormone receptor; assay: Displacement of [D-Trp6]-GnRH from human recombinant GnRH receptor
[4] = target: T1, Gonadotropin-releasing hormone receptor; assay: Antagonist activity at rat recombinant GnRH receptor assessed as inhibition of [D-Trp6]-GnRH-stimulated LH release from rat pituitary cells; format: functional, cell-based, Pituitary gland cell
[5] = Aqueous solubility at pH 7.4; format: physicochemical
[6] = Metabolic stability in rat liver microsomes assessed as half life; format: ADME, Microsome
[7] = Permeability across artificial membrane; format: ADME; conditions: PAMPA; read-out: permeability
[8] = Half life in castrated rat at 1 mg/kg, iv; format: ADME, organism-based; design: dose 1 mg/kg, route intravenous; conditions: male, in vivo
[9] = Clearance in castrated rat plasma at 1 mg/kg, iv; format: ADME, organism-based; design: dose 1 mg/kg, route intravenous; conditions: male
[10] = Volume of distribution at steady state in castrated rat at 1 mg/kg, iv; format: ADME, organism-based; design: dose 1 mg/kg, route intravenous; conditions: male, in vivo, read-out: Vdss
[11] = AUC (0 to infinity) in castrated rat at 1 mg/kg, iv; format: ADME, organism-based; design: time infinity, dose 1 mg/kg, route intravenous; conditions: male, plasma
[12] = Half life in castrated rat at 20 mg/kg, po; format: ADME, organism-based; design: dose 20 mg/kg, route oral; conditions: male, in vivo
[13] = Cmax in castrated rat at 20 mg/kg, po; format: ADME, organism-based; design: dose 20 mg/kg, route oral; conditions: male, in vivo
[14] = Tmax in castrated rat at 20 mg/kg, po; format: ADME, organism-based; design: dose 20 mg/kg, route oral; conditions: male, in vivo
[15] = AUC (0 to infinity) in castrated rat at 20 mg/kg, po; format: ADME, organism-based; design: time infinity, dose 20 mg/kg, route oral; conditions: male, plasma
[16] = Oral bioavailability in castrated rat at 20 mg/kg; format: ADME, organism-based; conditions: male, in vivo
[17] = system: Rattus norvegicus; assay: Reduction of serum LH level in castrated rat at 30 mg/kg, po after 1 hr; format: functional, organism-based; design: dose 30 mg/kg
[18] = target: Voltage-gated inwardly rectifying potassium channel KCNH2 (Homo sapiens, UniProt Q12809); assay: Inhibition of human ERG potassium channel at 2 uM
Chain of Voltage-gated inwardly rectifying potassium channel KCNH2 (Q12809 whole entry): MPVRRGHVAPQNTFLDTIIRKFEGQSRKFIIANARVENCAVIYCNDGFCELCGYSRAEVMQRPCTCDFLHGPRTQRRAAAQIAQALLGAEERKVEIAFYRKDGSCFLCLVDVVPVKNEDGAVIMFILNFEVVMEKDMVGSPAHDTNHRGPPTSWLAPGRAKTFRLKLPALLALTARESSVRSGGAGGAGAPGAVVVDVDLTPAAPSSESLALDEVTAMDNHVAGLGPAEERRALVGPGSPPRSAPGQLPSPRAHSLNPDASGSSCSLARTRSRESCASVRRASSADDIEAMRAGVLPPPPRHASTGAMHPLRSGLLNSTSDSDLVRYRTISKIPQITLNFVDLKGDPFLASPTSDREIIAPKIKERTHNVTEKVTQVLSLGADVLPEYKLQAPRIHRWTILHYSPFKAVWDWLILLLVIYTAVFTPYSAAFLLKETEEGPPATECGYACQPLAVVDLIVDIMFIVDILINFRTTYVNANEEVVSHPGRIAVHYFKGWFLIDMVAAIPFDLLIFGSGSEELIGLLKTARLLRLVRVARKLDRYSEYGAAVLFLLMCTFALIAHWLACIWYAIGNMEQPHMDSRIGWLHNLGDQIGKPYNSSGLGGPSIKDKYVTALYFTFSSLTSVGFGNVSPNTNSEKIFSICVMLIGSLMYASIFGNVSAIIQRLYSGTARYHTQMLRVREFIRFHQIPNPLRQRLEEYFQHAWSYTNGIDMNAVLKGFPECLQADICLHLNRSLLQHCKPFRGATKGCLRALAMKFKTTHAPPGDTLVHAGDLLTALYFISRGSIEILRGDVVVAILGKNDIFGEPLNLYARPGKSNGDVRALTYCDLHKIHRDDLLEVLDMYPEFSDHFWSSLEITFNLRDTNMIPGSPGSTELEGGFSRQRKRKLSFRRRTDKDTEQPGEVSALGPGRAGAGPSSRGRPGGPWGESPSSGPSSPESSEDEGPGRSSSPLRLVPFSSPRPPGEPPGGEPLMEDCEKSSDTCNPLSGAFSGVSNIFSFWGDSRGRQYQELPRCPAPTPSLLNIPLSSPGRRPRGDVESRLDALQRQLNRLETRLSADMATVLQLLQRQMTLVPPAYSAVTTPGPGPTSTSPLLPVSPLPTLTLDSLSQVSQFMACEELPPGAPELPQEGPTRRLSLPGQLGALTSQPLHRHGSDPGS

[19] = target: Opioid receptors; mu/kappa/delta (Homo sapiens, UniProt P41145+P41143+P35372); assay: Inhibition of human non-selective opioid receptor
[20] = target: T3, Substance-K receptor (Homo sapiens, UniProt P21452); assay: Inhibition of human neurokinin NK2 receptor
T3 sequence (P21452 whole entry): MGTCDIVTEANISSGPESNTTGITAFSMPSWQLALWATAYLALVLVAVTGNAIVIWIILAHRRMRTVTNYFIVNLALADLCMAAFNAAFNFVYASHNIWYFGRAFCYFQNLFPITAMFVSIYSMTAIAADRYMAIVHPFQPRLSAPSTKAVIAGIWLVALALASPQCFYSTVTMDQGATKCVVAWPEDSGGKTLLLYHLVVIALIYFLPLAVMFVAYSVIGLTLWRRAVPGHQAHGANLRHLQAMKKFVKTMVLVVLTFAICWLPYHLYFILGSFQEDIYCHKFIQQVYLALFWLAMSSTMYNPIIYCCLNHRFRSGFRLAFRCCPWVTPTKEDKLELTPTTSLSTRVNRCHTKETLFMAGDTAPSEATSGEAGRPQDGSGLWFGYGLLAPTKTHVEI

[21] = target: Histamine H2 receptor (Homo sapiens, UniProt P25021); assay: Inhibition of human histamine H2 receptor
Chain of Histamine H2 receptor (P25021 whole entry): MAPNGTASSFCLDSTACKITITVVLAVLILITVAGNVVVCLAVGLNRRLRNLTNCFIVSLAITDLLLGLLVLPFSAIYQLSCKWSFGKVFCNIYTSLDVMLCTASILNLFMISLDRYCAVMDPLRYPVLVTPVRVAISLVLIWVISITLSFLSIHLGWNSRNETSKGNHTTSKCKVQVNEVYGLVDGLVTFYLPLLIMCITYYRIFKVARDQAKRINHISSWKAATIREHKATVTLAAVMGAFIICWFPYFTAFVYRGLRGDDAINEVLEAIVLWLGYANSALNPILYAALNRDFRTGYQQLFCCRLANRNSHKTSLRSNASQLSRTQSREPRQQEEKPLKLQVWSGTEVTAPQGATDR

[22] = system: Rattus norvegicus; assay: Reduction of serum LH level in castrated rat at 30 mg/kg, po after 6 hr; format: functional, organism-based; design: dose 30 mg/kg

For CC(C)(C)c1ccc(-c2nc3c(N4CCN(Cc5cnc6[nH]c(=O)c(=O)[nH]c6c5)CC4)cccc3[nH]2)cc1, the IC50 [1] was 33 nM, the IC50 [2] was 9.7 nM and the IC50 [3] was 1.8 nM. It also gave an IC50 [4] of 240 nM, a solubility [5] of 4 µg/mL (≈ 7.85 µM) and a half-life [6] of 30 min. It also gave a Papp [7] of under 0.1 ×10⁻⁶ cm/s.
Compound CC(C)(C)c1ccc(-c2nc3c(N4CCN(Cc5ccc6nccnc6c5)CC4)cccc3[nH]2)cc1 has an IC50 [1] of 71 nM, an IC50 [2] of 28 nM and an IC50 [3] of 12 nM. The IC50 [4] was 350 nM, the half-life [6] was 16 min and the Papp [7] was 0.23 ×10⁻⁶ cm/s. For the same compound, the half-life [8] was 162 min, the clearance [9] was 38 mL/min/kg and the Vd [10] was 6.1 L/kg. The AUC(0-inf) [11] was 447 ng·h/mL, the half-life [12] was 222 min and the Cmax [13] was 1330 ng/mL. The Tmax [14] was 120 min, the AUC(0-inf) [15] was 6640 ng·h/mL and the bioavailability [16] was 74%. The Activity [17] was “Active”, the Activity [18] was “Not Active” and the Ki [19] was 550 nM. For the same compound, the Ki [20] was 330 nM, the Ki [21] was 850 nM and the Activity [22] was “Active”.
CC(C)(C)c1ccc(-c2nc3c(N4CCN(Cc5ccc6[nH]c(=O)c(=O)[nH]c6c5)CC4)cccc3[nH]2)cc1 gave a solubility [5] of under 1 µg/mL, a half-life [6] of 14 min and a Papp [7] of under 0.1 ×10⁻⁶ cm/s.
Cn1c(=O)c(=O)[nH]c2ccc(CN3CCN(c4cccc5[nH]c(-c6ccc(C(C)(C)C)cc6)nc45)CC3)cc21 gave an IC50 [1] of 17 nM, an IC50 [2] of 7.4 nM and an IC50 [3] of 3.5 nM. The IC50 [4] was 44 nM and the solubility [5] was under 1 µg/mL.
Compound CC(C)(C)c1ccc(-c2nc3c(N4CCN(Cc5ccc6c(c5)NCC(=O)N6)CC4)cccc3[nH]2)cc1 has an IC50 [1] of 87 nM, an IC50 [2] of 16 nM and an IC50 [3] of 16 nM. It also gave an IC50 [4] of 120 nM, a solubility [5] of 1 µg/mL (≈ 2.02 µM) and a half-life [6] of 3 min. The Papp [7] was 0.05 ×10⁻⁶ cm/s.
With CC(C)(C)c1ccc(-c2nc3c(N4CCN(Cc5ccc6cccnc6c5)CC4)cccc3[nH]2)cc1 the IC50 [2] was 140 nM, the IC50 [3] was 24 nM and the IC50 [4] was 540 nM. The solubility [5] was 4 µg/mL (≈ 8.41 µM) and the Papp [7] was 1.5 ×10⁻⁶ cm/s.
CC(C)(C)c1ccc(-c2nc3c(N4CCN(Cc5ccc6ncccc6c5)CC4)cccc3[nH]2)cc1 showed an IC50 [2] of 64 nM, an IC50 [3] of 21 nM and an IC50 [4] of 830 nM. It also gave a solubility [5] of 2 µg/mL (≈ 4.2 µM) and a Papp [7] of 0.4 ×10⁻⁶ cm/s.
CC(C)(C)c1ccc(-c2nc3c(N4CCN(Cc5ccc6[nH]c(=O)c(=O)n(Cc7cccnc7)c6c5)CC4)cccc3[nH]2)cc1 gave an IC50 [1] of 47 nM, an IC50 [2] of 14 nM and an IC50 [3] of 5.6 nM. The IC50 [4] was 69 nM, the solubility [5] was under 1 µg/mL and the half-life [6] was 10 min. For the same compound, the Papp [7] was 0.05 ×10⁻⁶ cm/s.
CC(C)(C)c1ccc(-c2nc3c(N4CCN(Cc5cccc6nccnc56)CC4)cccc3[nH]2)cc1 showed an IC50 [2] of 400 nM, an IC50 [3] of 26 nM and an IC50 [4] of 5900 nM.
